According to US20120283228A1, “2alpha-Methyl and 2beta-Methyl Analogs of 19,26-Dinor-1alpha,25-Dihydroxyvitamin D3 and Their Uses” (WISCONSIN ALUMNI RESEARCH FOUNDATION, priority 2011, published 2012):
“Also recorded” adds a separate entry of the source. Where two headings read alike, the source gives them in different places.

Experiments:
[1] = test system: Human promyelocytic leukemia (HL60) cells; experiment: HL-60 differentiation (nitro blue tetrazolium reduction); assay type: cell-based; conditions: for EC50: HL-60 cells, read-out: EC50, ability to promote HL-60 cell differentiation
Description: Serial dilutions were prepared so that a range of drug concentrations could be tested without changing the final concentration of ethanol (≦0.2%) present in the cell cultures.
Human promyelocytic leukemia (HL60) cells were grown in RPMI-1640 medium containing 10% fetal bovine serus. The cells were incubated at 37° C. in the presence of 5% CO2.
HL60 cells were plated at 1.2×10^5 cells/ml. Eighteen hours after plating, cells in duplicate were treated with drug. Four days later, the cells were harvested and a nitro blue tetrazolium reduction assay was performed (Collins et al., 1979; J. Ex. Med. 149:969-974). The percentage of differentiated cells was determined by counting a total of 200 cells and recording the number that contained intracellular black-blue formazan deposits Verification of differentiation to monocytic cells was determined by measuring phagocytic activity (data not shown).

[2] = test system: 24-hydroxylase (24Ohase) gene promoter; experiment: In vitro transcription assay in ROS 17/2.8 (bone) cells, luciferase reporter; assay type: cell-based; conditions: for EC50: ROS 17/2.8 cells, 24-hydroxylase promoter-luciferase, read-out: EC50, transcriptional activity in bone cells; for logs less transcriptional activity than 1α,25-dihydroxyvitamin D3 in bone cells / times less transcriptional activity than 1α,25-dihydroxyvitamin D3 in bone cells: less than 1,25(OH)2D3; for times more transcriptional activity than 1α,25-dihydroxyvitamin D3 in bone cells: more than 1,25(OH)2D3
Description: Transcription activity was measured in ROS 17/2.8 (bone) cells that were stably transfected with a 24-hydroxylase (24Ohase) gene promoter upstream of a luciferase reporter gene (Arbour et al., 1998). Cells were given a range of doses. Sixteen hours after dosing the cells were harvested and luciferase activities were measured using a luminometer.
RLU=relative luciferase units.

vitamin D-deficient rats [3] = experiment: Bone calcium mobilization (serum calcium); assay type: in vivo, Sprague-Dawley rats; conditions: rats on low calcium diet (0.02%); for mobilization of bone calcium at 35,100 pmol/day: 35,100 pmol/day for 4 consecutive days; for activity in mobilizing calcium from bone / serum calcium levels: all dosages tested; for times less potent than 1,25(OH)2D3 in bone (bone calcium mobilization): 4 ip doses; for mobilization of bone calcium at 7,020 pmol/day: 7,020 pmol/day for 4 consecutive days; for mobilization of bone calcium at 21,060 pmol/day: 21,060 pmol/day for 4 consecutive days
Description: (§1) Male, weanling Sprague-Dawley rats were placed on Diet 11 (0.47% Ca) diet +AEK for one week followed by Diet 11 (0.02% Ca) +AEK for 3 weeks. The rats were then switched to a diet containing 0.47% Ca for one week followed by two, weeks on a diet containing 0.02% Ca. Dose administration began during the last week on 0.02% calcium diet. Four consecutive ip doses were given approximately 24 hours apart. Twenty-four hours after the last dose, blood was collected from the severed neck and the concentration of serum calcium determined as a measure of bone calcium mobilization. The first 10 cm of the intestine was also collected for intestinal calcium transport analysis using the everted gut sac method.

vitamin D-deficient rats [4] = experiment: Intestinal calcium transport (everted gut sac method); assay type: in vivo, Sprague-Dawley rats; conditions: for logs less potent than 1,25(OH)2D3 in the intestine / intestinal calcium transport activity / times less potent than 1,25(OH)2D3 in stimulating calcium transport in the gut: rats on low calcium diet (0.02%); for logs less potent than 1,25(OH)2D3 in the intestine / times less potent than 1,25(OH)2D3 in stimulating calcium transport in the gut: 4 ip doses
Description: as §1

[5] = biological target: T1, full-length recombinant rat vitamin D receptor (Rattus norvegicus, UniProt P13053); conditions: for Ki: read-out: Ki, ability to compete with [3H]-1,25(OH)2D3 for binding to the vitamin D receptor, full-length recombinant rat VDR
T1 sequence (P13053 1-423): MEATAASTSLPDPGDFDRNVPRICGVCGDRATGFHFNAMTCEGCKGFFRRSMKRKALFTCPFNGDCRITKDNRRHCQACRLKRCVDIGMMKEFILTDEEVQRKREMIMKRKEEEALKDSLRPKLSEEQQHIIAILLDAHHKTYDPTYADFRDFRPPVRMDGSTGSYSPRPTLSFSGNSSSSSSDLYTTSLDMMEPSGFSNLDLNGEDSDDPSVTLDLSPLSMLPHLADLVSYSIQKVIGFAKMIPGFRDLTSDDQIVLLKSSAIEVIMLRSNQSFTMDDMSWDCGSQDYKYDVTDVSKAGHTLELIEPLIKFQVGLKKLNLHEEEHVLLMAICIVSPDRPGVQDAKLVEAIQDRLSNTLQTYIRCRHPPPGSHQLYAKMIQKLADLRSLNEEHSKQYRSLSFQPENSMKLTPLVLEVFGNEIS
Description: (§2) Full-length recombinant rat receptor was expressed in E. coli BL21 (DE3) Codon Plus RIL cells and purified to homogeneity using two different column chromatography systems. The first system was a nickel affinity resin that utilizes the C-terminal histidine tag on this protein. The protein that was eluted from this resin was further purified using ion exchange chromatography (S-Sepharose Fast Flow). Aliquots of the purified protein were quick frozen in liquid nitrogen and stored at −80° C. until use. For use in binding assays, the protein was diluted in TEDK50 (50 mM Tris, 1.5 mM EDTA, pH 7.4, 5 mM DTT, 150 mM KCl) with 0.1% Chaps detergent. The receptor protein and ligand concentration was optimized such that no more than 20% of the added radiolabeled ligand as bound to the receptor.
(§3) Radiolabeled and unlabeled ligands were added to 100 mcl of the diluted protein at a final ethanol concentration of ≦10%; mixed and incubated overnight on ice to reach binding equilibrium. The following day, 100 mcl of hydroxylapaptite slurry (50%) was added to each tube and mixed at 10-minute intervals for 30 minutes. The hydroxylapaptite was collected by centrifugation and then washed three times with Tris-EDTA buffer (50 mM Tris, 1.5 mM EDTA, pH 7.4) containing 0.5% Titron X-100. After the final wash, the pellets were transferred to scintillation vials containing 4 ml of Biosafe II scintillation cocktail, mixed and placed in a scintillation counter. Total binding was determined from the tubes containing only radiolabeled ligand.

[6] = biological target: T1, full-length recombinant rat vitamin D receptor; experiment: biochemical; conditions: ability to compete with [3H]-1,25(OH)2D3 for binding to the vitamin D receptor, full-length recombinant rat VDR
Description: as §2, §3

[7] = compared with 1,25(OH)2D3 at 780 pmol/day

For `CC1[C@H](O)CC(=C/C=C2\CCC[C@]3(C)[C@@H]([C@@H](C)CCC[C@H](C)O)CC[C@@H]23)C[C@H]1O` (stereo partly drawn) [IB-1, (20S,25S)-2β-methyl-19,26-dinor-1α,25-dihydroxyvitamin D3], the EC50 [1] was 20 nM, the “logs less potent than 1,25(OH)2D3 on HL-60 differentiation” value [1] was “one and about one” and the “times less potent than 1,25(OH)2D3 on HL-60 differentiation” value [1] was 10 times. For the same compound, the EC50 [2] was 7 nM, the “logs less transcriptional activity than 1α,25-dihydroxyvitamin D3 in bone cells” value [2] was “about 3 log” and the “times less transcriptional activity than 1α,25-dihydroxyvitamin D3 in bone cells” value [2] was “approximately 30 times”. The “mobilization of bone calcium at 35,100 pmol/day” value (vitamin D-deficient rats [3]) was “did not result in mobilization of bone calcium”, the “activity in mobilizing calcium from bone / serum calcium levels” value (“activity … from bone / serum calcium levels” below) (vitamin D-deficient rats [3]) was “little, if any, activity” and the “times less potent than 1,25(OH)2D3 in bone (bone calcium mobilization)” value (vitamin D-deficient rats [3]) was “more than 50 times”. For the same compound, the “intestinal calcium transport at 35,100 pmol/day” value (vitamin D-deficient rats [4]; [7]) was “some intestinal calcium transport activity; but still not to the same extent as 1,25(OH)2D3” and the Ki [5] was 0.8 nM.
With `CC1[C@H](O)CC(=C/C=C2\CCC[C@]3(C)[C@@H]([C@H](C)CCC[C@@H](C)O)CC[C@@H]23)C[C@H]1O` (stereo partly drawn) [MY-2, (20R,25R)-2α-methyl-19,26-dinor-1α,25-dihydroxyvitamin D3] the “HL-60 differentiation potency as compared to 1,25(OH)2D3” value [1] was “as potent as 1,25(OH)2D3; also recorded: little difference”, the EC50 [1] was 2 nM and the “transcriptional activity in bone cells as compared to 1α,25-dihydroxyvitamin D3” value [2] was “equivalent to 1α,25-dihydroxyvitamin D3; also recorded: about the same transcriptional activity”. The EC50 [2] was 0.4 nM, the “mobilization of bone calcium at 7,020 pmol/day” value (vitamin D-deficient rats [3]) was “did not result in mobilization of bone calcium” and the “mobilization of bone calcium at 35,100 pmol/day” value (vitamin D-deficient rats [3]) was “without any substantial effect”. For the same compound, the “activity … from bone / serum calcium levels” value (vitamin D-deficient rats [3]) was “little, if any, activity”, the “times less potent than 1,25(OH)2D3 in bone (bone calcium mobilization)” value (vitamin D-deficient rats [3]) was “more than 50 times” and the “intestinal calcium transport at 7,020 pmol/day” value (vitamin D-deficient rats [4]; [7]) was “some intestinal calcium transport activity, but still not to the same extent as 1,25(OH)2D3”. For the same compound, the “binding to the receptor as compared to 1,25(OH)2D3” value (from here on “binding … compared to 1,25(OH)2D3”) [5] was “bound equally well; also recorded: equivalent” and the Ki [5] was 0.2 nM.
In the case of `CC1[C@H](O)CC(=C/C=C2\CCC[C@]3(C)[C@@H]([C@H](C)CCC[C@@H](C)O)CC[C@@H]23)C[C@H]1O` (stereo partly drawn) [DW-1, (20R,25R)-2β-methyl-19,26-dinor-1α,25-dihydroxyvitamin D3], the EC50 [1] is reported as 60 nM, the “times less potent than 1,25(OH)2D3 on HL-60 differentiation” value [1] is reported as “about 30 times” and the EC50 [2] is reported as 20 nM. For the same compound, the “logs less transcriptional activity than 1α,25-dihydroxyvitamin D3 in bone cells” value [2] was “about 2 log”, the “times less transcriptional activity than 1α,25-dihydroxyvitamin D3 in bone cells” value [2] was ~20 times and the “mobilization of bone calcium at 7,020 pmol/day” value (vitamin D-deficient rats [3]) was “did not result in mobilization of bone calcium”. For the same compound, the “mobilization of bone calcium at 35,100 pmol/day” value (vitamin D-deficient rats [3]) was “without any substantial effect”, the “activity … from bone / serum calcium levels” value (vitamin D-deficient rats [3]) was “little, if any, activity” and the “times less potent than 1,25(OH)2D3 in bone (bone calcium mobilization)” value (vitamin D-deficient rats [3]) was “more than 50 times”. For the same compound, the “intestinal calcium transport at 35,100 pmol/day” value (vitamin D-deficient rats [4]; [7]) was “some intestinal calcium transport activity, but still not to the same extent as 1,25(OH)2D3” and the Ki [5] was 1 nM.
`CC(O)CCCC(C)C1CCC2C(=CC=C3CC(O)C(C)C(O)C3)CCCC21C` (single isomer, unassigned) [TA-2] was tested, and the EC50 [1] was 0.5 nM, the EC50 [2] was 0.08 nM and the “times more transcriptional activity than 1α,25-dihydroxyvitamin D3 in bone cells” value [2] was “about 4 times”. The “mobilization of bone calcium at 7,020 pmol/day” value (vitamin D-deficient rats [3]) was “did not result in mobilization of bone calcium”, the “mobilization of bone calcium at 35,100 pmol/day” value (vitamin D-deficient rats [3]) was “without any substantial effect” and the “activity … from bone / serum calcium levels” value (vitamin D-deficient rats [3]) was “little, if any, activity”. For the same compound, the “times less potent than 1,25(OH)2D3 in bone (bone calcium mobilization)” value (vitamin D-deficient rats [3]) was “more than 50 times”, the “intestinal calcium transport at 7,020 pmol/day” value (vitamin D-deficient rats [4]; [7]) was “some intestinal calcium transport activity, but still not to the same extent as 1,25(OH)2D3” and the “logs less potent than 1,25(OH)2D3 in the intestine” value (vitamin D-deficient rats [4]) was “approximately 1 log and one”. For the same compound, the “binding … compared to 1,25(OH)2D3” value [5] was “bound equally well; also recorded: equivalent”.
In the case of `CC(O)CCCC(C)C1CCC2C(=CC=C3CC(O)C(C)C(O)C3)CCCC21C` (single isomer, unassigned) [FD-1], the EC50 [1] is reported as 6 nM, the EC50 [2] is reported as 1 nM and the “logs less transcriptional activity than 1α,25-dihydroxyvitamin D3 in bone cells” value [2] is reported as “about 1 log”. For the same compound, the “times less transcriptional activity than 1α,25-dihydroxyvitamin D3 in bone cells” value [2] was “about 10 times”, the “mobilization of bone calcium at 21,060 pmol/day” value (vitamin D-deficient rats [3]) was “did not result in mobilization of bone calcium” and the “activity … from bone / serum calcium levels” value (vitamin D-deficient rats [3]) was “little, if any, activity”. For the same compound, the “times less potent than 1,25(OH)2D3 in bone (bone calcium mobilization)” value (vitamin D-deficient rats [3]) was “more than 40 times”, the “intestinal calcium transport at 21,060 pmol/day” value (vitamin D-deficient rats [4]; 21,060 pmol/day for 4 consecutive days, compared with 1,25(OH)2D3 at 780 pmol/day) was “some intestinal calcium transport, but hot to the same extent as 1,25(OH)2D3” and the “intestinal calcium transport activity” value (vitamin D-deficient rats [4]) was “some, but very little, intestinal calcium transport activity”. For the same compound, the “times less potent than 1,25(OH)2D3 in stimulating calcium transport in the gut” value (vitamin D-deficient rats [4]) was “approximately 40 times” and the Ki [6] was 0.4 nM.
`CC(O)CCCC(C)C1CCC2C(=CC=C3CC(O)C(C)C(O)C3)CCCC21C` (single isomer, unassigned) [TH-1] was tested, and the EC50 [1] was 70 nM, the “logs less potent than 1,25(OH)2D3 on HL-60 differentiation” value [1] was 3 log and the “logs less transcriptional activity than 1α,25-dihydroxyvitamin D3 in bone cells” value [2] was “about 2 log”. The “times less transcriptional activity than 1α,25-dihydroxyvitamin D3 in bone cells” value [2] was ~20 times, the “mobilization of bone calcium at 35,100 pmol/day” value (vitamin D-deficient rats [3]) was “did not result in mobilization of bone calcium” and the “activity … from bone / serum calcium levels” value (vitamin D-deficient rats [3]) was “little, if any, activity”. The “times less potent than 1,25(OH)2D3 in bone (bone calcium mobilization)” value (vitamin D-deficient rats [3]) was “more than 50 times”, the “intestinal calcium transport at 35,100 pmol/day” value (vitamin D-deficient rats [4]; [7]) was “some intestinal calcium transport activity, but still not to the same extent as 1,25(OH)D3” and the Ki [6] was 5 nM.
With `CC(O)CCCC(C)C1CCC2C(=CC=C3CC(O)C(C)C(O)C3)CCCC21C` (single isomer, unassigned) [LR-2] the EC50 [1] was 0.1 nM, the “times more potent than 1,25(OH)2D3 on HL-60 differentiation” value ([1]; more potent than 1,25(OH)2D3) was 10 times and the “times more transcriptional activity than 1α,25-dihydroxyvitamin D3 in bone cells” value [2] was 10 times. For the same compound, the “mobilization of bone calcium at 7,020 pmol/day” value (vitamin D-deficient rats [3]) was “did not result in mobilization of bone calcium”, the “mobilization of bone calcium at 21,060 pmol/day” value (vitamin D-deficient rats [3]) was “without any substantial effect” and the “activity … from bone / serum calcium levels” value (vitamin D-deficient rats [3]) was “little, if any, activity”. The “times less potent than 1,25(OH)2D3 in bone (bone calcium mobilization)” value (vitamin D-deficient rats [3]) was “more than 30 times”, the “intestinal calcium transport at 7,020 pmol/day” value (vitamin D-deficient rats [4]; [7]) was “some intestinal calcium transport activity, but still not to the same extent as 1,25(OH)2D3” and the “logs less potent than 1,25(OH)2D3 in the intestine” value (vitamin D-deficient rats [4]) was “approximately one and one”. For the same compound, the “times less potent than 1,25(OH)2D3 in stimulating calcium transport in the gut” value (vitamin D-deficient rats [4]) was “about 10 times”, the “binding … compared to 1,25(OH)2D3” value [5] was “bound equally well; also recorded: equivalent” and the Ki [6] was 0.08 nM.
For `C=C1/C(=C\C=C2/CCC[C@]3(C)[C@@H]([C@H](C)CCCC(C)(C)O)CC[C@@H]23)C[C@@H](O)C[C@@H]1O` [1,25(OH)2D3, 1α,25-dihydroxyvitamin D3, reference compound], the EC50 [1] was 2 nM, the EC50 [2] was 0.2 nM and the “activity … from bone / serum calcium levels” value (vitamin D-deficient rats [3]) was “increased serum calcium levels”. The “intestinal calcium transport activity” value (vitamin D-deficient rats [4]) was “significant activity”.
